Assay results published in paper PMC8652888, “Angiogenesis, Anti-Tumor, and Anti-Metastatic Activity of Novel α-Substituted Hetero-Aromatic Chalcone Hybrids as Inhibitors of Microtubule Polymerization” (Frontiers in Chemistry, 2021).
“And” between values parts separate entries of the source, which are not always exact repeats. Identical values can stand only once. Like-named read-outs stand apart in the source and are kept apart here.

Legend:
MCF-7 cells [1] = experiment: Wound healing assay; assay type: cell-based, human; settings: 48 h
Description: (§1) In order to evaluate whether 7m could suppress migration and invasion, the MCF-7 cell culture was performed by wound healing and Transwell Matrigel assay, respectively.
(§2) MCF-7 cells and HUVECs cells were grown in 24-well plates at a density of 1 × 10^6 cells per well for 24 h. Scratches were made in confluent monolayers by […] pipette tips. The media containing different concentrations of 7m were added to the Petri dishes. […] The migration distance of cells migrated to the wound area was measured manually.

MCF-7 = experiment: Antiproliferative activity, SRB assay; assay type: cell-based, human;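 further: proliferation of MCF7 cells quantified by sulforhodamine B staining, with optical density read at 560 nm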
HUVECs [2] = experiment: Wound healing assay; assay type: cell-based, human; settings: 1, 5, 25 μΜ, 48 h
Description: (§3) A wound healing assay was, thus, performed to evaluate the capacity of 7m to inhibit cell motility. […] Then the invasion inhibitory activities of 7m were further detected using Transwell assay with HUVECs cells treated with 0, 1, 5, and 25 μΜ of 7m. In this assay, […] were seeded into upper chambers which were pre-coated with Matrigel matrix in order to evaluate the cellular invasion.
as §2

HepG2 = experiment: Antiproliferative activity, SRB assay; assay type: cell-based, human
Method in brief: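 Cells seeded at 3 × 10^3–4 × 10^3 per well, grown 24 h, then exposed to compounds at various concentrations for 72 h at 37 °C. TCA-fixed cells stained with 0.4% SRB; bound dye dissolved in 10 mM Tris base and OD read at 560 nm.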

[3] = test system: intersegmental vessel (ISV) development, Tg (flk: EGFP) embryos; experiment: Anti-angiogenic effect on zebrafish embryos; assay type: in vivo
Source text: Zebrafish embryo is a powerful model to study human diseases, and the transgenic zebrafish labeled with green fluorescent protein (GFP) in endothelial cells are always used to analyze angiogenesis activity in vivo ([Rocke et al., 2009]). Accordingly, we treated the transgenic Tg (flk: EGFP) embryos with different doses of 7m (0.5, 1, 2.5, 5 μΜ), and 30 hpf zebrafish was imaged by fluorescent microscopy to examine the effect on intersegmental vessel (ISV) development. […] When the concentration of 7m was elevated to 2.5 μΜ, the […] effect was more pronounced as evidenced by the 3.5- to 4-fold reduction in the number of SIVs.
The transgenic zebrafish Tg (flk: EGFP) embryos were paired normally and collected into a six-well plate (n = 30/well), then 1 ml of aquaculture water (0.2 g/L distilled water instant sea salt) was added and were raised at 28.5°C. When the zebrafish embryos developed to 12 hpf, the indicated concentrations of 7m were added, and 30 embryos were selected for each concentration gradient and incubated at 28.5°C to 30 hpf. At 30 hpf, the zebrafish embryos were imaged and photographed under a fluorescence microscope to observe the growth of blood vessels in the body, and the number of intersegmental blood vessels (ISV) was recorded.

normal liver LO2 cells = experiment: Growth inhibition of normal cells; assay type: cell-based, human
HUVECs [4] = experiment: Transwell cell invasion experiment; assay type: cell-based, human; settings: 1, 5, 25 μΜ
Description: as §3
(§4) The upper chamber of the Transwell chamber was filled with cells resuspended in serum-free medium, 6 × 10^4 cells per well, 100 μl per well, and the lower chamber was added with 10% FBS-containing medium prepared with different concentrations of 7m. The cells were allowed to migrate for 48 h at 37°C in an atmosphere of 5% CO2. Then the migration of cells to the underside of the filter was determined by crystal violet staining.

[5] = test system: Cyclin B1, p-Cdc2 and P21 in MCF-7 cells; experiment: Western blot of cell cycle-related proteins; assay type: cell-based, human; settings: for P21, band quantification / cyclinB1, band quantification / pcdc2, band quantification: two runs
Description: Cell cycle regulatory proteins Cyclin B1 and Cdc2 are key proteins to control the transition from G2 to M phase through increasing the G2/M intracellular fraction in cell cycle distribution. Some agents produce cell cycle arrest by decreasing Cyclin B1 level ([Xiao et al., 2018]), while others increase the Cyclin B1 level, depending on the cell types ([Zhang et al., 2016]).
MCF-7 cells were seeded into […] dishes at a density of 6 × 10^5/dish and incubated for 24 h. After treating the cells with the compound 7m, the cells were cultured for 48 h and washed with PBS, and then the soluble and insoluble tubulin fractions were collected. Protein quantification was performed by BCA Protein Concentration Determination Kit following centrifugation at 12,000 rpm for 10 min at 4°C. Cell lysates were separated by SDS-PAGE at 80 V constant voltage for 30–40 min. […] After 5% skim milk was blocked for 1 h, the primary antibody was added and incubated overnight before being washed three times with PBST. The secondary antibody was incubated for 2 h at room temperature the next day and subsequently washed three times with PBST. Then the signal was detected with ECL.

MCF-7 cells [6] = experiment: Transwell Matrigel invasion assay; assay type: cell-based, human
Description: as §1, §4

tubulin = experiment: Tubulin polymerization in vitro (fluorescence); assay type: biochemical; settings: 37°C; read-out: IC50, inhibition of tubulin polymerization
Description: Data are presented as the mean ± SD from three independent experiments. **p < 0.01 vs. the vehicle control.
An in vitro assay was performed to monitor the time-dependent polymerization of tubulin into microtubules. The 96-well cell culture plate was incubated at 37°C for 10 min, and test compounds and reference compounds were prepared with a 10× analyte stock solution. Five microliters of 10× analyte stock solution was added to a 96-well plate, and the microplate reader was heated at 37°C for 1 min. Immediately 85 μl of Tubulin Stock was drawn and mixed with the above mixture to prepare the tubulin reaction solution, and 50 μl of the tubulin reaction solution was to each well. The multifunctional microplate reader measured the absorbance, and the measured fluorescence value represents the level of tubulin in the polymerized state in the reaction solution.

In the case of “3-(benzofuran-6-yl)-2-methyl-1-(3,4,5-trimethoxyphenyl)prop-2-en-1-one [Compound 7m]”, the “wound healing of MCF-7 cells (migration)” value (MCF-7 cells [1]) is reported as “significantly inhibited the wound healing”, the IC50 (MCF-7; 72 h, triplicate, mean ± SD, read-out: IC50 ± SD, MCF-7) is reported as 183 ± 32 nM and the IC50 (MCF-7; Table 3, triplicate, read-out: IC50 ± SD, MCF7) is reported as 183 ± 32 nM. For the same substance, the IC50 (MCF-7; three single determinations, read-out: MCF-7 (raw data of table 3, IC50)) was 146 nM and 223 nM and 180 nM, the “closure of wound scratching” value (HUVECs [2]) was “obviously decreased the closure of wound scratching” and the IC50 (HepG2; 72 h, triplicate, mean ± SD, read-out: IC50 ± SD, HepG2) was 70 ± 1 nM. The IC50 (HepG2; supplement raw data of table 2, read-out: IC50(Hepg2)) was 70.5 nM, the “number and length of SIVs vs vehicle control” value ([3]; 0.5 and 1 μΜ, 30 hpf) was “slightly reduced” and the ISVs formations ([3]; doses ≥5 μM) was “seriously impaired”. The “developmental toxicity in embryos” value ([3]; doses ≥5 μM) was “developmental defects were observed”, the Selectivity ratio (normal liver LO2 cells; (IC50 human normal cells LO2)/(IC50 MCF7)) was 4.9 and the IC50 (normal liver LO2 cells; three single determinations, read-out: L02 (raw data of table 3, IC50)) was 885 nM and 871 nM and 914 nM. The IC50 (normal liver LO2 cells; triplicate, read-out: IC50 ± SD, LO2) was 890 ± 14 nM, the “invasion ability of cells” value (HUVECs [4]) was “invasion ability of cells gradually weakened” and the “P21, band quantification” value ([5]; 100nM) was 0.4949 and 0.5407. For the same substance, the “cyclinB1, band quantification” value ([5]; 100nM) was 1.376 and 1.378, the “pcdc2, band quantification” value ([5]; 100nM) was 0.4445 and 0.4619 and the “P21, band quantification” value ([5]; 200nM) was 0.4098 and 0.48. For the same substance, the “cyclinB1, band quantification” value ([5]; 200nM) was 1.5822 and 1.545, the “pcdc2, band quantification” value ([5]; 200nM) was 0.4706 and 0.4291 and the “P21, band quantification” value ([5]; 400nM) was 0.006743 and 0.008008. The “cyclinB1, band quantification” value ([5]; 400nM) was 1.8972 and 1.928, the “pcdc2, band quantification” value ([5]; 400nM) was 0.2956 and 0.3089 and the “Cyclin B1 expression” value ([5]; 100, 200, 400 nM) was “overexpressed”. For the same substance, the p-Cdc2 protein level ([5]; 100, 200, 400 nM) was “dose-dependently decreased”, the MCF-7 cells invasion (MCF-7 cells [6]) was “hinder the MCF-7 cells invasion in a dose-dependent manner” and the IC50 (tubulin) was 12200 nM.
